Source: patent US20120251595A1, “EMULSION TEMPLATE METHOD TO FORM SMALL PARTICLES OF HYDROPHOBIC AGENTS WITH SURFACE ENRICHED HYDROPHILICITY BY ULTRA RAPID FREEZING” (BOARD OF REGENTS, THE UNIVERSITY OF TEXAS SYSTEM, priority 2009, published 2012)
≈ marks a conversion by molar mass, not a printed value.

Columns and labels:
[1] = cited from earlier work
[2] = Solubility and pKa of itraconazole; type: physicochemical; details: pH 1.2 dissolution media, simulated gastric fluid, thermodynamic from solid, crystalline ITZ, read-out: Equilibrium solubility Ceq
Text: This study compares the effectiveness of fine emulsion templating and co-solvent approaches with the URF process to enhance the wetting and solubility of the model drug, itraconazole (ITZ). Itraconazole (ITZ) is a weakly basic broad-spectrum triazole antifungal agent indicated in the treatment of both local and systemic fungal infections; however, successful treatment of infections is often complicated by its low aqueous solubility resulting in variable absorption and plasma concentration. Classified as a BCS class II compound, ITZ has a strongly pH dependent solubility (pKa˜3.7) with reported solubilities in acidic and neutral media of approximately 4 μg/mL and 1 ng/mL, respectively. While limited by poor aqueous solubility, the highly lipophilic nature of the compound allows for high permeability of intestinal membranes. […]

[3] = X-ray photoelectron spectroscopy (XPS) of particle surface composition; type: physicochemical
Method: […]
Powders containing ITZ were prepared according to procedures outlined in Examples 1, 2, 3, and 4 with the same formulations. The elemental composition of the particle surfaces was determined using X-ray photoelectron spectroscopy (XPS). […] Percent surface excess of ITZ was calculated by deducting 50% from the percent surface compositions of ITZ while percent surface excess of lecithin was calculated by deducting 25% from the percent surface compositions of lecithin. […]

solubility thermodynamic [2]: 5 µg/mL (≈ 7.09 µM)
Mass Concentration Chlorine, SOL [3]: 9.54%
Surface composition ITZ, SOL [3]: 100.0%
SMILES: CCC(C)n1ncn(-c2ccc(N3CCN(c4ccc(OCC5COC(Cn6cncn6)(c6ccc(Cl)cc6Cl)O5)cc4)CC3)cc2)c1=O (stereo not shown) [ITZ, itraconazole]
pKa [1]: ~3.7
